Data on six compounds can be found in US4835160A, “Derivatives of pyridoindole, having anti-tumor properties” (Sanofi, priority 1986, dated 1989).

One data set is described as follows: in vivo. On the set-up: species or system CDF1 hybrid mice. To be noted: mouse, ip. The text has this: The compounds of the invention benefit from a good tolerance and a weak toxicity.
Thus the administration, to healthy CDF1 hybrid mice, in a single injection by intraperitoneal route, of the compounds under test, has enabled it to be established that the product is perfectly tolerated at a high dosage since the survival rate of the animals of the experiment was 100 out of 100 thirteen days after administration.

The test system of a further data set is reticulosarcoma M5-M5076. Put plainly: Test for reticulosarcoma M5-M5076. Format: in vivo, BDF1 hybrid mice. To be noted: 50 mg/kg IP, D1,5,9,13,17. As to the method:
(§1) The antitumour activity was tested in vivo on various tumours inoculated in various ways according to the following general protocol:
(§2) All the male or female mice are inoculated on day D0 with a known quantity of viable tumour cells for ascitic tumours or with a known tumour fragment for solid tumours.
(§3) They are then distributed into various groups. Each group, corresponding to the animals treated by the product under test, is made up of 10 mice. The product under test is dissolved in distilled water and it is administered n times (Dx-Dy), n, y, and x varying according to the protocol chosen, at the rate of 0.1 ml of solution per 10 g by weight of mice treated and at specific doses for each protocol.
(§4) The "negative control" group, corresponding to the animals which are not treated by the product, contains 2√N animals, N being equal to or greater than the total number of mice treated by the product in the same experiment.
(§5) Finally, the tests can also be carried out at the same time as the study of a group called "positive control", of ten animals, which is treated by a molecule, known for its antitumour activity and which can vary according to the protocol chosen, in the same conditions as the groups treated by the product under test.
(§6) The antitumour activity is evaluated, in the case of ascitic tumours, by considering the increase in the survival time of the animals treated in comparison to that of the animals in the "negative control" group, according to the formula: [formula]
(§7) Also, a product is considered as toxic at the dose studied when this T/C value is equal to or less than 85%. In addition, a product is also considered as toxic at the dose studied when the weight variation, expressed in grams and calculated by the formula: […]
The tests are carried out with BDF1 hybrid mice inoculated by intraperitoneal route with 10^6 cells of the M5-M5076 line. The compound under test is administered 5 times successively in sequence (D1,5,9,13,17) by intraperitoneal route. The positive control for the test is cyclophosphamide administered in the same conditions. The number of surviving animals is evaluated on day D75.

Another data set concerns leukemia P 388. In words: Test of leukemia P 388; IP/IP, D1-5. Format: in vivo, CDF1 hybrid mice. To be noted: D1-D5; for Number of survivors: day D30; for T/C %: survival time. As to the method:
(2) In vivo: (GERAN et al., Cancer Chemother., 1972, 2, 07-57):
as §1, §2, §3, §4, §5, §6
The criterion for activity varies according to the protocol.
as §7
"Average weight of the group measured on day 5--Average weight of the same group measured on day 1"
is equal to or less than 4 g.
(a) Test of lelukemia P 388; IP/IP, D1-5 (GERAN et al., Cancer Chemother., 1972, 2, 07-57).
The tests are carried out with CDF1 hybrid mice inoculated by intraperitoneal route with 10^6 leukemia cells from the P 388 line. The compound under test is administered for 5 successive days (D1-D5) by intraperitoneal route. The positive control for the test is 5-fluorouracile which is administered in the same conditions. The number of surviving animals is evaluated on day D30.

The subject of the next data set is melanoma B 16. Put plainly: Test for melanoma B 16. The conditions noted are these: D1-D9; for Number of survivors: day D60; for T/C %: survival time. The format is in vivo, BDF1 hybrid mice. The protocol: as §1, §2, §3, §4, §5, §6, §7
(d) Test for melanoma B 16 (GERAN et al., Cancer Chemother., 1972, 2, 07-75).
The tests are carried out with BDF1 hybrid mice inoculated by intraperitoneal route with 0.5 ml of a homogenate of melanoma B 16 made up from 1 g of tumour in 10 ml of physiological serum. The compound under test is administered for 9 days (D1-D9) by intraperitoneal route. The positive control for the test is Cis-Platine administered in the same conditions. The number of surviving animals is evaluated on day D60.

The subject of data set [1] is leukemia tumour line L 1210. In words: In vitro cytotoxic activity on leukemia tumour line L 1210. The format is cell-based. To be noted: Mus musculus, L1210, 48 h, L 1210, 48 hours contact, 37° C.; read-out: I D 50 (concentration which inhibits the proliferation of the cells by 50%). The protocol: (1) In vitro: ([…] et al., Chem. Biol. Interaction, 1979, 25, 45-58). The cytotoxic activity of the compounds of the invention has been evaluated by in vitro tests. These tests consist of adding increasing concentrations of the compound under test to a cellular culture of the leukemia tumour line L 1210 in an exponential phase of growth. The cellules are incubated at 37° C. in a CO2 incubator and counted every 24 hours. The calculation of the I D 50 (concentration of the product, expressed in 1^-1 micromole, which inhibits the proliferation of the cells by 50%) is made after 48 hours contact.

Each structure is given as a SMILES string.

For `CCN(CC)CCCNc1ncc(C)c2[nH]c3ccccc3c12` [Derivative No. 1, 1-(3-diethylaminopropylamino) 4-methyl-5H-pyrido-[4,3-b]indole], the survival at 312 h in the data set “in vivo” (100 mg/kg) came out at 100%. The “Median day of survival” value in the data set on reticulosarcoma M5-M5076 was 32.7 days; in the data set on leukemia P 388 (10 mg/kg IP), 15.7 days; in the data set on leukemia P 388 (50 mg/kg IP) it was 21.0 days. Further, the “Variation by weight” value is listed as -0.6 g in the data set on reticulosarcoma M5-M5076, -0.9 g in the data set with leukemia P 388 (10 mg/kg IP) and -2.6 g with leukemia P 388 (50 mg/kg IP). Further, the Number of survivors in the data set with reticulosarcoma M5-M5076 (day D75), with leukemia P 388 (10 mg/kg IP) and in the data set with leukemia P 388 (50 mg/kg IP) was 0/10 throughout. The T/C % with reticulosarcoma M5-M5076 (survival time) was determined as 130%; in the data set with leukemia P 388 (10 mg/kg IP), 130%; with leukemia P 388 (50 mg/kg IP), 174%.
As to `CCN(CC)CCCNc1ncc(C)c2[nH]c3ccc(OC)cc3c12` [Derivative No. 4, 1-(3-diethylaminopropylamino)-8-methoxy-4-methyl-5H-pyrido[4,3-b]indole], the “Median day of survival” value was found to be 29.0 days in the data set on melanoma B 16 (5 mg/kg IP); 14.0 days in the data set with leukemia P 388 (5 mg/kg IP); 17.0 days with leukemia P 388 (10 mg/kg IP); 17.25 days in the data set with leukemia P 388 (20 mg/kg IP); 20.3 days in the data set with leukemia P 388 (40 mg/kg IP); 6.6 days with leukemia P 388 (80 mg/kg IP). The “Variation by weight” value with melanoma B 16 (5 mg/kg IP) is given as -1.9 g; with leukemia P 388 (20 mg/kg IP) it was -0.9 g; in the data set on leukemia P 388 (40 mg/kg IP) it was -3.4 g; with leukemia P 388 (80 mg/kg IP), -4.8 g. Besides, the Number of survivors in the data set with melanoma B 16 (5 mg/kg IP), with leukemia P 388 (5 mg/kg IP), with leukemia P 388 (10 mg/kg IP), in the data set on leukemia P 388 (20 mg/kg IP), with leukemia P 388 (40 mg/kg IP) and with leukemia P 388 (80 mg/kg IP) was 0/10 throughout. In addition, the T/C % in the data set on melanoma B 16 (5 mg/kg IP) was 135%; in the data set on leukemia P 388 (5 mg/kg IP) it was 121%; in the data set with leukemia P 388 (10 mg/kg IP) it was 147%; in the data set on leukemia P 388 (20 mg/kg IP), 149%; in the data set on leukemia P 388 (40 mg/kg IP), 176%; in the data set with leukemia P 388 (80 mg/kg IP), 57%. Moreover, in data set [1], the IC50 was found to be 0.3 µM. Further, in “in vivo” (50 mg/kg), the survival at 312 h was 100%. Further, the “Variation by weight (g)” value is on record as “+1.1 g” in the data set with leukemia P 388 (5 mg/kg IP) and “+0.7 g” in the data set on leukemia P 388 (10 mg/kg IP).
`Cc1cnc(NCCCN(C)C)c2c1[nH]c1ccc(O)cc12` [Derivative No. 9, 1-(3-dimethylaminopropylamino)-8-hydroxy-4-methyl-5H-pyrido[4,3-b]indole]: in the data set with melanoma B 16 (0.625 mg/kg IP), the “Median day of survival” value was 28 days, the “Variation by weight (g)” value was “+1.3 g”, the Number of survivors is recorded as 0/10 and the T/C % was found to be 118%. Besides, in the data set with melanoma B 16 (1.25 mg/kg IP), the “Median day of survival” value came out at 33.0 days, the “Variation by weight (g)” value is given as “+0.1 g”, the Number of survivors is recorded as 1/10 and the T/C % was found to be 139%. Also, in the data set on melanoma B 16 (2.5 mg/kg IP), the “Median day of survival” value is 31.25 days, the “Variation by weight (g)” value was “+0.8 g”, the Number of survivors is recorded as 1/10 and the T/C % is reported as 131%. The IC50 in data set [1] was determined as 0.09 µM.
On to `COc1ccc2c(c1)c1c(NCCCN(C)C)ncc(C)c1n2C.Cl.Cl` [Derivative No. 13, 4,5-dimethyl-1-(3-dimethylaminopropylamino)-8-methoxy-5H-pyrido[4,3-b]indole dihydrochloride], for which, in data set [1], the IC50 was found to be 0.13 µM. Also, in the data set with leukemia P 388 (5 mg/kg IP), the “Median day of survival” value amounted to 14.1 days, the “Variation by weight (g)” value is “+1.0 g”, the Number of survivors was 0/10 and the T/C % was found to be 134%. Further, in the data set with leukemia P 388 (10 mg/kg IP), the “Median day of survival” value stood at 16.8 days, the “Variation by weight (g)” value is listed as “+1.2 g”, the Number of survivors is recorded as 0/10 and the T/C % is given as 160%. Further, in the data set with leukemia P 388 (20 mg/kg IP), the “Median day of survival” value stood at 15.8 days, the “Variation by weight (g)” value is “+0.4 g”, the Number of survivors is on record as 0/10 and the T/C % was 150%. For the same compound, in the data set with leukemia P 388 (40 mg/kg IP), the “Median day of survival” value is 8.4 days, the “Variation by weight” value is -2.5 g, the Number of survivors was 0/10 and the T/C % amounted to 80%.
`Cc1cnc(NCCCN(C)C)c2c3ccccc3n(C)c12.Cl.Cl` [Derivative No. 17, 4,5-dimethyl 1-(3-dimethylaminopropylamino)-5H-pyrido[4,3-b]indole dihydrochloride]: the IC50 in data set [1] turned out to be 0.35 µM. In the data set with leukemia P 388 (24 mg/kg IP), the “Median day of survival” value came out at 15.4 days, the “Variation by weight” value is recorded as 0.0 g, the Number of survivors is on record as 0/10 and the T/C % stood at 131%.
Take `CCN(CC)CCNc1ncc(C)c2c1c1cc(O)ccc1n2C.Cl.Cl` [Derivative No. 19, 1-(2-diethylaminoethylamino)-4,5-dimethyl-8-hydroxy-5H-pyrido[4,3-b]indole dihydrochloride]: the IC50 in data set [1] came out at 0.15 µM. Moreover, in the data set with leukemia P 388 (5 mg/kg IP), the “Median day of survival” value came out at 15.3 days, the “Variation by weight (g)” value is reported as “+0.5 g”, the Number of survivors was 0/6 and the T/C % is 142%. Moreover, in the data set on leukemia P 388 (10 mg/kg IP), the “Median day of survival” value was 17.0 days, the “Variation by weight” value was -0.2 g, the Number of survivors is 0/6 and the T/C % was 153%. In addition, in the data set with leukemia P 388 (20 mg/kg IP), the “Median day of survival” value came out at 20.3 days, the “Variation by weight (g)” value was “+0.3 g”, the Number of survivors is on record as 0/6 and the T/C % came to 182%. In addition, in the data set with leukemia P 388 (40 mg/kg IP), the “Median day of survival” value came to 15.3 days, the “Variation by weight” value is -2.1 g, the Number of survivors was 0/6 and the T/C % worked out at 137%.
